Here are results for 27 compounds from patent US12522593B2, “Azacycloalkyl carbonyl cyclic amine compound” (Alivexis, Inc., priority 2022, dated 2026).

One test has as its target human recombinant CTSC (Homo sapiens (Human), UniProt P53634). Put plainly: CTSC inhibition assay (in vitro), fluorescent substrate GF-AFC. The conditions noted are these: 30 μmol/L GF-AFC, pH 5.0, 25° C. It is filed as biochemical. On the procedure: 1. CTSC Inhibition Assay (In Vitro)
A test specimen was evaluated by a CTSC inhibition assay using a fluorescent substrate GF-AFC (Gly-Phe-7-Amino-4-trifluoromethylcoumarin, MP Biomedical, 03AFC03325). Since the GF-AFC is converted by CTSC to aminotrifluoromethylcoumarin having a specific fluorescence wavelength and the produced amount is proportional to CTSC activity, quantitative analysis was performed by measuring a fluorescence intensity with a plate reader. CTSC inhibition assay for each compound was performed using a polystyrene-made non-adhesive surface-treated black 384 well plate under the following conditions.
A human recombinant CTSC (R&D systems, 1071-CY) was dissolved in a CTSC active cocktail (20 ng/mL of human recombinant cathepsin L (R&D systems, 952-CY, 25 mmol/L MES/NaOH (pH: 6.0), 5 mmol/L dithiothreitol (DTT)) so as to be 100 ng/mL and incubated at 18° C. for 30 minutes. The solution was diluted with a CTSC assay buffer (50 mmol/L MES/NaOH (pH: 5.0), 50 mmol/L NaCl, 0.001% Triton X-100, mmol/L DTT) so as to be 2 ng/mL in a case of performing CTSC inhibition assay.
The test specimen was dissolved in dimethylsulfoxide (DMSO) at 10 mmol/L to prepare a stock solution. In a case where a solution in which the stock solution was diluted 15-fold with DMSO was used as the maximum evaluation concentration (0.667 mmol/L), 5-fold dilution was repeated in DMSO from the solution to prepare a serially diluted solution. 248.8 μL of the CTSC assay buffer was added to 1.12 μL of the serially diluted sample prepared in the DMSO to prepare a solution of a CTSC inhibition assay compound.
The final composition of the CTSC inhibition assay mixture was 0.66 ng/mL activated CTSC, 50 mmol/L MES/NaOH (pH: 5.0), 50 mmol/L NaCl, 0.001% Triton X-100, 5 mmol/L DTT, 30 μmol/L GF-AFC, and 0.15% DMSO, and the procedure was as follows. That is, 4 μL of the compound solution and 4 μL of the 2 ng/mL activated CTSC solution were mixed with each other in a 384 well plate and incubated at 25° C. for 30 minutes. Thereafter, 4 μL of the GF-AFC solution dissolved in the CTSC assay buffer was added to the mixture so as to be 90 μmol/L. After mixing to be uniform, a fluorescence emission intensity at 505 nm in a case of being excited at 390 nm after incubating at 25° C. for 1 hour was measured with a plate reader. A 4-parameter regression analysis was performed with GraphPad Prism (manufactured by GraphPad Software) from a plot of the fluorescence intensity at 505 nm and the sample concentration, and an IC50 value was calculated.
Results of test compounds of Formula (I) are shown in Table 1 as IC50 (nM) values for which 50% inhibition concentration is calculated based on CTSC inhibition (%). In the table, Ex indicates an example number.

The target in a further test is CTSC in U937 cells (Homo sapiens (Human), UniProt P53634). The test is described as follows: Intracellular CTSC inhibition assay (in vitro), LLOMe-induced cell death in U937 cells. In kind it is cell-based. Conditions: 3 hours culture, CellTiter-Glo. The protocol:
2. Intracellular CTSC Inhibition Assay (In Vitro)
A test specimen was evaluated by a degree of cell death in a case where a substrate LLOMe (L-Leucyl-L-Leucine methyl ester, hydrobromide salt, Sigma, 555045152) was added to U937 cells. The LLOMe is taken up into the cells by endocytosis and cleaved by CTSC. A product thereof induces lysosomal damage in cells and causes cell death in leukocytes and the like. Therefore, since the degree of cell death correlates with an amount of degradation of LLOMe, that is, with CTSC activity, by quantitatively analyzing the cell death, CTSC inhibitory activity of the test specimen in the cell was determined. CTSC inhibition assay was performed using a polystyrene-made white 384 well plate.
As the test specimen, a stock solution dissolved in DMSO was prepared so as to be 0.2 mmol/L, and in a case where a solution in which the stock solution was diluted 50-fold with a RPMI-1640 medium including 10% FBS was used as the maximum evaluation concentration (4000 nmol/L), a serially diluted solution was prepared by diluting the solution 3-fold with the medium. Thereafter, a 4-fold concentrated test specimen solution with the target final concentration was prepared.
U937 cells were cultured in a RPMI-1640 medium including 10% FBS, and diluted to prepare 90,000 cells/mL of cell suspension on the day of assay. 10 μL of the cell suspension was seeded per well. Next, 10 μL of the test specimen solution having a concentration 4 times the target final concentration was added thereto, and the mixture was allowed to stand for 30 minutes. Thereafter, 20 μL of a 300 μmol/L LLOMe solution dissolved in a RPMI-1640 medium including 10% FBS was added thereto, and the cells were cultured for 3 hours. After completion of the culture, 40 μL of CellTiter-Glo (registered trademark) reagent (Promega, G7570) was added to each well and mixed. After 15 minutes, 20 μL of the reaction solution in each well was transferred to a white 384 well plate, and a chemiluminescence intensity was measured with a plate reader. A 4-parameter regression analysis was performed with GraphPad Prism (manufactured by GraphPad Software) from a plot of the luminescence intensity and the sample concentration, and an IC50 value was calculated.
Results of test compounds of Formula (1) are shown in Table 2 as IC50 (nM) values for which 50% inhibition concentration is calculated based on CTSC inhibition (%). In the table, Ex indicates an example number.
(In general: In ATP-based viability assays light output follows the ATP content of the culture.)

SMILES strings stand for the structures.

human recombinant CTSC, sequence (P53634 25-134): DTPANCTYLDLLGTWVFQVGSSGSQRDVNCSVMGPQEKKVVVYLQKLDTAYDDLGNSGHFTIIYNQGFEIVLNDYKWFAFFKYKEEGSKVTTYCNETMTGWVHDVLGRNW
human recombinant CTSC, sequence (P53634 231-394): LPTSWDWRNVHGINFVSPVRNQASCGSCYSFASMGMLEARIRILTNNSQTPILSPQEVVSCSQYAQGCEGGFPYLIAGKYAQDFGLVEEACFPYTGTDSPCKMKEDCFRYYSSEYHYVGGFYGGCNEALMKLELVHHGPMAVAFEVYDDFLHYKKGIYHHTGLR
human recombinant CTSC, sequence (P53634 395-463): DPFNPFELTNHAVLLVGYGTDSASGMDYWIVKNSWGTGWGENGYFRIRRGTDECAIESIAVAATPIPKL
CTSC in U937 cells, sequence (P53634 25-463): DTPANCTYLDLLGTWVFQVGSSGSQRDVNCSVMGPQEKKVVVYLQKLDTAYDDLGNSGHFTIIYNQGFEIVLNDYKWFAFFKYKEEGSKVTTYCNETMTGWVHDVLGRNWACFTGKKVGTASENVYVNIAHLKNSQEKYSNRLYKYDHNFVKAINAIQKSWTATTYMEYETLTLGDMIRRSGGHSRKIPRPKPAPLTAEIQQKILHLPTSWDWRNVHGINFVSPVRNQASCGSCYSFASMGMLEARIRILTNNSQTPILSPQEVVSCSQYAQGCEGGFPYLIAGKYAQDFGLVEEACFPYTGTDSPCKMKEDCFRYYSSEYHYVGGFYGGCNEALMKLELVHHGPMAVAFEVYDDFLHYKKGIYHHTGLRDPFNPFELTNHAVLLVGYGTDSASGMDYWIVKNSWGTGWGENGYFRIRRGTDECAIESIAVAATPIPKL

One may read the IC50 as the concentration that gives 50% inhibition. `CC(C)C1(c2nc(C3CC(C)(C)C3)no2)CN(C(=O)[C@@H]2CC[C@@]3(CCO3)CN2)C1` [Example 29]: the IC50 came to 1.47 nM at human recombinant CTSC and 11.3 nM against CTSC in U937 cells.

Turning to `CC(C)C1(c2noc(C3CCC(F)(F)CC3)n2)CCN(C(=O)[C@@H]2C[C@H](S(C)(=O)=O)CN2)CC1` [Example 30], the IC50 at human recombinant CTSC and at CTSC in U937 cells was more than 1000 nM each time.

Consider `O=C([C@@H]1C[C@@H](O)C2(CCC2)CN1)N1CCC(c2noc(C3CCC(F)(F)CC3)n2)(C(F)(F)F)CC1` [Example 31, (4-(5-(4,4-Difluorocyclohexyl)-1,2,4-oxadiazol-3-yl)-4-(trifluoromethyl)piperidin-1-yl)((7S,9R)-9-hydroxy-6-azaspiro[3.5]nonan-7-yl)methanone], for which the IC50 at human recombinant CTSC worked out at 0.31 nM; at CTSC in U937 cells, 0.22 nM.

As to `O=C([C@@H]1C[C@@H](O)C2(CCC2)CN1)N1CCC(C(=O)N2CCOC3(CC3)C2)(C(F)(F)F)CC1` [Example 32], the IC50 at human recombinant CTSC stood at 25.5 nM; at CTSC in U937 cells it was 8.84 nM.

Regarding `CC(NC(=O)C1(C(F)(F)F)CCN(C(=O)[C@@H]2CC[C@@]3(CCO3)CN2)CC1)C1CCC(F)(F)CC1` (stereo partly drawn) [Example 33], the IC50 at human recombinant CTSC was determined as 2.62 nM; against CTSC in U937 cells, 7.5 nM.

Regarding `CC(C)C1(c2noc(C3CCC(F)(F)CC3)n2)CCN(C(=O)[C@@H]2C[C@@H](O)CCN2)CC1` [Example 34], the results for the IC50 at human recombinant CTSC and at CTSC in U937 cells were more than 1000 nM and more than 333 nM, respectively.

Regarding `O=C([C@@H]1C[C@@H](O)C2(CCC2)CN1)N1CCC(C(=O)N2CCC(C(F)(F)F)C2)(C(F)(F)F)CC1` (stereo partly drawn) [Example 35], the IC50 came to 3.39 nM at human recombinant CTSC and 6.54 nM at CTSC in U937 cells.

On to `CC(C)C1(c2noc(C3CCC(F)(F)CC3)n2)CCN(C(=O)[C@@H]2C[C@@H](O)C(C)(C)CN2)CC1` [Example 36], for which the IC50 at human recombinant CTSC came to 1.88 nM; against CTSC in U937 cells, 0.71 nM.

Regarding `O=C([C@@H]1C[C@@H](O)C2(CCC2)CN1)N1CCC(C(=O)N2CCO[C@@H](C(F)(F)F)C2)(C(F)(F)F)CC1` [Example 37], the IC50 worked out at 28.4 nM on human recombinant CTSC and 10.1 nM on CTSC in U937 cells.

`CC(C)C1(c2noc(C3CCC(F)(F)CC3)n2)CCN(C(=O)[C@H]2N[C@H]3CC[C@@H]2[C@H](O)C3)CC1` [Example 38]: the results for the IC50 on human recombinant CTSC and on CTSC in U937 cells were more than 200 nM and 124 nM, respectively.

As for `O=C([C@@H]1C[C@@H](O)C2(CCC2)CN1)N1CCC(C(=O)N2CCO[C@H](C(F)(F)F)C2)(C(F)(F)F)CC1` [Example 39], the figures for the IC50 at human recombinant CTSC and against CTSC in U937 cells were 13.3 nM and 7.18 nM, respectively.

In the case of `O=C([C@@H]1CC[C@@]2(CCO2)CN1)N1CCC(c2noc(C3CC(F)(F)C3)n2)(C(F)(F)F)CC1` [Example 40], the IC50 at human recombinant CTSC turned out to be 19.6 nM; against CTSC in U937 cells, 37.9 nM.

`CC(C)C1(c2noc(C3CCC(F)(F)CC3)n2)CCN(C(=O)C2CCC(C)(C)CN2)CC1` (stereo not drawn) [Example 41]: the IC50 on human recombinant CTSC was found to be 18.5 nM; on CTSC in U937 cells it was 6.95 nM.

Consider `CC(C)C1(c2noc(C3CCC(F)(F)CC3)n2)CCN(C(=O)C2CCC3(CCC3)CN2)CC1` (stereo not drawn) [Example 42], for which the IC50 on human recombinant CTSC stood at 7.19 nM; against CTSC in U937 cells, 2.28 nM.

Consider `CC1CC[C@@H](C(=O)N2CCC(c3noc(C4CCC(F)(F)CC4)n3)(C(C)C)CC2)NC1` (stereo partly drawn) [Example 43], for which the concentration for half-maximal inhibition (IC50) was more than 100 nM at human recombinant CTSC and 57.3 nM against CTSC in U937 cells.

Take `O=C([C@@H]1C[C@@H](O)C2(CCC2)CN1)N1CCC(c2ccc(F)cn2)(c2noc(C3CC(F)(F)C3)n2)CC1` [Example 44]: the IC50 at human recombinant CTSC worked out at 2.74 nM; at CTSC in U937 cells, 4.24 nM.

`CC1(c2nc(C3(C(F)(F)F)CCN(C(=O)[C@@H]4C[C@@H](O)C5(CCC5)CN4)CC3)no2)CC(F)(F)C1` [Example 45]: the IC50 on human recombinant CTSC stood at 1.88 nM; against CTSC in U937 cells it was 0.17 nM.

Regarding `CC(C)C1(c2noc(C3CCC(F)(F)CC3)n2)CCN(C(=O)[C@@H]2CCC3(CC3)CN2)CC1` [Example 46], the IC50 is 53.5 nM at human recombinant CTSC and 42.5 nM against CTSC in U937 cells.

Turning to `O=C(c1nc(C2(C(F)(F)F)CCN(C(=O)[C@@H]3C[C@@H](O)C4(CCC4)CN3)CC2)no1)N1CCC(F)(F)CC1` [Example 48], the IC50 at human recombinant CTSC came out at 3.07 nM; at CTSC in U937 cells it was 4 nM.

`C[C@]1(F)C[C@H](c2nc(C3(C(F)(F)F)CCN(C(=O)[C@@H]4C[C@@H](O)C5(CCC5)CN4)CC3)no2)C1` [Example 49]: the IC50 on human recombinant CTSC stood at 4.43 nM; at CTSC in U937 cells, 0.35 nM.

As for `O=C([C@@H]1C[C@@H](O)C2(CCC2)CN1)N1CCC(c2noc(C3CCC(F)(F)CO3)n2)(C(F)(F)F)CC1` (stereo partly drawn) [Example 50, (4-(5-(5,5-difluorotetrahydro-2H-pyran-2-yl)-1,2,4-oxadiazol-3-yl)-4-(trifluoromethyl)piperidin-1-yl)((7S,9R)-9-hydroxy-6-azaspiro[3.5]nonan-7-yl)methanone], the IC50 on human recombinant CTSC turned out to be 1.53 nM; at CTSC in U937 cells, 0.8 nM.

As to `CC1(C)CN[C@H](C(=O)N2CCC(c3noc(C4CC(F)(F)C4)n3)(C(F)(F)F)CC2)C[C@H]1O` [Example 51, (4-(5-(3,3-Difluorocyclobutyl)-1,2,4-oxadiazol-3-yl)-4-(trifluoromethyl)piperidin-1-yl)((2S,4R)-4-hydroxy-5,5-dimethylpiperidin-2-yl)methanone], the figures for the IC50 on human recombinant CTSC and against CTSC in U937 cells were 8.28 nM and 0.86 nM, respectively.

For `O=C([C@@H]1C[C@@H](O)C2(CCC2)CN1)N1CCC(C(=O)N2CC[C@@H](C(F)(F)F)C2)(C(F)(F)F)CC1` [Example 52], the IC50 at human recombinant CTSC amounted to 8.16 nM; at CTSC in U937 cells it was 10.2 nM.

Turning to `CC1(C)CN(C(=O)c2nc(C3(C(F)(F)F)CCN(C(=O)[C@@H]4C[C@@H](O)C5(CCC5)CN4)CC3)no2)C1` [Example 53], the IC50 stood at 18.7 nM on human recombinant CTSC and 11.3 nM against CTSC in U937 cells.

As to `CC(C)C1(c2nc(C3CC(F)(F)C3)no2)CCN(C(=O)[C@@H]2C[C@@H](O)C(C)(C)CN2)CC1` [Example 54], the IC50 at human recombinant CTSC amounted to 3.88 nM; against CTSC in U937 cells it was 1.46 nM.

`O=C([C@@H]1C[C@@H](O)C2(CCC2)CN1)N1CCC(C(=O)N2CC[C@H](C(F)(F)F)C2)(C(F)(F)F)CC1` [Example 55]: the IC50 amounted to 4.4 nM at human recombinant CTSC and 3.79 nM on CTSC in U937 cells.

In the case of `CC1(C)CN[C@H](C(=O)N2CCC(c3noc(C4CCC(F)(F)CC4)n3)(C(F)(F)F)CC2)C[C@H]1O` [Example 56, (4-(5-(4,4-Difluorocyclohexyl)-1,2,4-oxadiazol-3-yl)-4-(trifluoromethyl)piperidin-1-yl)((2S,4R)-4-hydroxy-5,5-dimethylpiperidin-2-yl)methanone], the IC50 came to 2.06 nM at human recombinant CTSC and 0.71 nM against CTSC in U937 cells.
